Results published in ChEMBL document CHEMBL1155237, “Selective inhibitors of the mutant B-Raf pathway: discovery of a potent and orally bioavailable aminoisoquinoline” (J Med Chem, 2009).

Key:
[1] = biological target: Hepatocyte growth factor receptor (Homo sapiens) (UniProt P08581); assay: Inhibition of MET assessed as enzyme activity at 1 uM relative to untreated control; set-up: scale not given: the % may be the effect or the level left
A-375 [2] = assay: Antitumor activity against human A375 SQ2 cells xenografted in CD1 mouse assessed as inhibition of tumor growth at 1 mg/kg, po qd for 14 days; assay type: functional; settings: A-375, 336 h
[3] = biological target: Testis-specific serine/threonine-protein kinase 1 (Homo sapiens) (UniProt Q9BXA7); assay: Inhibition of TSSK1 assessed as enzyme activity at 1 uM relative to untreated control; set-up: scale not given: the % may be the effect or the level left
[4] = biological target: cAMP-dependent protein kinase catalytic subunit beta (Homo sapiens) (UniProt P22694); assay: Inhibition of PKACbeta assessed as enzyme activity at 1 uM relative to untreated control; set-up: scale not given: the % may be the effect or the level left
[5] = test system: Tyrosine-protein kinase ABL1 (Homo sapiens), P00519 [F317I]; assay: Inhibition of ABL1 F317I mutant assessed as enzyme activity at 1 uM relative to untreated control; set-up: scale not given: the % may be the effect or the level left
[6] = Inhibition of FGFR3 G697C mutant assessed as enzyme activity at 1 uM relative to untreated control; set-up: scale not given: the % may be the effect or the level left
[7] = biological target: Serine/threonine-protein kinase 26 (Homo sapiens) (UniProt Q9P289); assay: Inhibition of MST4 assessed as enzyme activity at 1 uM relative to untreated control; set-up: scale not given: the % may be the effect or the level left
Serine/threonine-protein kinase 26 (Homo sapiens), sequence (Q9P289 2-416 limits assumed): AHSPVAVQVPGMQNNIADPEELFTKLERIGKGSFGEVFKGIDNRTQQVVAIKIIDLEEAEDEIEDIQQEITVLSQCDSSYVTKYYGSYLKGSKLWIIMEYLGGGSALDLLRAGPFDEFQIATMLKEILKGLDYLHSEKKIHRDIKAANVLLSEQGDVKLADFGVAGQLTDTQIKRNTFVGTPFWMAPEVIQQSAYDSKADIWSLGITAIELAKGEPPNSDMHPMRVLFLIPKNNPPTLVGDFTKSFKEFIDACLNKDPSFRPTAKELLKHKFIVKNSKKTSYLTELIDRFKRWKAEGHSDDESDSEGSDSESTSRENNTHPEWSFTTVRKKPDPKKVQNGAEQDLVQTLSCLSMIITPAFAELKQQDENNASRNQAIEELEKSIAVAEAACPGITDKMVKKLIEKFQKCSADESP

[8] = biological target: Mitogen-activated protein kinase kinase kinase kinase 3 (Homo sapiens) (UniProt Q8IVH8); assay: Inhibition of MAP4K3 assessed as enzyme activity at 1 uM relative to untreated control; set-up: scale not given: the % may be the effect or the level left
[9] = biological target: Tyrosine-protein kinase CSK (Homo sapiens) (UniProt P41240); assay: Inhibition of CSK assessed as enzyme activity at 1 uM relative to untreated control; set-up: scale not given: the % may be the effect or the level left
Tyrosine-protein kinase CSK (Homo sapiens), sequence (P41240 2-450 limits assumed): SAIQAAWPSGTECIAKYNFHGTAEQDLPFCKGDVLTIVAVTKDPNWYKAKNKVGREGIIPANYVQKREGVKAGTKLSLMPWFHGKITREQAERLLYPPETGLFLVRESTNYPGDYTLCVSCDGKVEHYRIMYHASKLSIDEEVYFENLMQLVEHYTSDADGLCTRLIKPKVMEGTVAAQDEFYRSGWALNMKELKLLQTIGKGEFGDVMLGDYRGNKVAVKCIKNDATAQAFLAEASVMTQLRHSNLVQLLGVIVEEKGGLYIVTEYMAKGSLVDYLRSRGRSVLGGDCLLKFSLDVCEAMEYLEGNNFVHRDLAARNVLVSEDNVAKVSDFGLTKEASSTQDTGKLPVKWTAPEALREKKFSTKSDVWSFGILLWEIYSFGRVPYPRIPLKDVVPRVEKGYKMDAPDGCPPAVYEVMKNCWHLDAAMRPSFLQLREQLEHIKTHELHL

[10] = biological target: Activin receptor type-1-like (Homo sapiens) (UniProt P37023); assay: Inhibition of ACVRL1 assessed as enzyme activity at 1 uM relative to untreated control; set-up: scale not given: the % may be the effect or the level left
[11] = biological target: Cyclin-dependent kinase 3 (Homo sapiens) (UniProt Q00526); assay: Inhibition of CDK3 assessed as enzyme activity at 1 uM relative to untreated control; set-up: scale not given: the % may be the effect or the level left
[12] = test system: Proto-oncogene tyrosine-protein kinase receptor Ret (Homo sapiens), P07949 [V804L]; assay: Inhibition of RET V804L mutant assessed as enzyme activity at 1 uM relative to untreated control; set-up: scale not given: the % may be the effect or the level left
Proto-oncogene tyrosine-protein kinase receptor Ret (Homo sapiens), P07949 [V804L], sequence (P07949 whole entry V804L): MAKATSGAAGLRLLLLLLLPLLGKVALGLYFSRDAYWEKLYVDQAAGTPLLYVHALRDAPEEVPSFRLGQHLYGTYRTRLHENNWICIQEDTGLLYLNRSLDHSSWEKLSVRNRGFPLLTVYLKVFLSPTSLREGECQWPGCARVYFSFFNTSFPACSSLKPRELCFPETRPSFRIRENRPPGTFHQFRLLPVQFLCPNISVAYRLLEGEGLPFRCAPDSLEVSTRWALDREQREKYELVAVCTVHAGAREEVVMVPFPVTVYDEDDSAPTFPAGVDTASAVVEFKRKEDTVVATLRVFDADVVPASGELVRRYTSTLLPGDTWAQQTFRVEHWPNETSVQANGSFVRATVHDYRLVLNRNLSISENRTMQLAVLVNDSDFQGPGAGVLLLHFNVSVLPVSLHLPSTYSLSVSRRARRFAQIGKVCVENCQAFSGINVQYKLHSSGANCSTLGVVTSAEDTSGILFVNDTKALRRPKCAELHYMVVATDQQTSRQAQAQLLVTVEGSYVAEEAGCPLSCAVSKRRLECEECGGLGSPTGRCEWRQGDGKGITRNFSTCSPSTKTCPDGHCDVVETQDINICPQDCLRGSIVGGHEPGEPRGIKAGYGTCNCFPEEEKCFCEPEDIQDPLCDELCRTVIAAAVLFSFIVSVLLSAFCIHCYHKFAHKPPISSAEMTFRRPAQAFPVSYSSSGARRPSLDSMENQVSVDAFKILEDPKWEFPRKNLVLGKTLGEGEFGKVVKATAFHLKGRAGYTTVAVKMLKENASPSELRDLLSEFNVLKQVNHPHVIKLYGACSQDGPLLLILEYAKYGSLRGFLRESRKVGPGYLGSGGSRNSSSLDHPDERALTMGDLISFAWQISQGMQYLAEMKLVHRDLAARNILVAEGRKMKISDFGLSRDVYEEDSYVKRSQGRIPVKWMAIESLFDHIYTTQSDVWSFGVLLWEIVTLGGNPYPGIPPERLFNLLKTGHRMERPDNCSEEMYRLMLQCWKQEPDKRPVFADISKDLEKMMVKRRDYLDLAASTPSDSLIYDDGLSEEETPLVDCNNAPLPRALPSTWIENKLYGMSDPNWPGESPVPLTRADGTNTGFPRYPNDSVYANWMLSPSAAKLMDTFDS

[13] = biological target: Bone morphogenetic protein receptor type-1A (Homo sapiens) (UniProt P36894); assay: Inhibition of BMPR1A assessed as enzyme activity at 1 uM relative to untreated control; set-up: scale not given: the % may be the effect or the level left
[14] = biological target: Calcium/calmodulin-dependent protein kinase type 1G (Homo sapiens) (UniProt Q96NX5); assay: Inhibition of CAMK1G assessed as enzyme activity at 1 uM relative to untreated control; set-up: scale not given: the % may be the effect or the level left
[15] = biological target: Ephrin type-A receptor 1 (Homo sapiens) (UniProt P21709); assay: Inhibition of EPHA1 assessed as enzyme activity at 1 uM relative to untreated control; set-up: scale not given: the % may be the effect or the level left
[16] = biological target: Cyclin-dependent kinase 16 (Homo sapiens) (UniProt Q00536); assay: Inhibition of PCTK1 assessed as enzyme activity at 1 uM relative to untreated control; set-up: scale not given: the % may be the effect or the level left
[17] = biological target: Interleukin-1 receptor-associated kinase 3 (Homo sapiens) (UniProt Q9Y616); assay: Inhibition of IRAK3 assessed as enzyme activity at 1 uM relative to untreated control; set-up: scale not given: the % may be the effect or the level left
[18] = biological target: Phosphatidylinositol 5-phosphate 4-kinase type-2 beta (Homo sapiens) (UniProt P78356); assay: Inhibition of PIP5K2B assessed as enzyme activity at 1 uM relative to untreated control; set-up: scale not given: the % may be the effect or the level left
[19] = biological target: Dual specificity protein kinase CLK3 (Homo sapiens) (UniProt P49761); assay: Inhibition of CLK3 assessed as enzyme activity at 1 uM relative to untreated control; set-up: scale not given: the % may be the effect or the level left
[20] = biological target: Serine/threonine-protein kinase SIK1 (Homo sapiens) (UniProt P57059); assay: Inhibition of SNF1LK assessed as enzyme activity at 1 uM relative to untreated control; set-up: scale not given: the % may be the effect or the level left
[21] = biological target: Mitogen-activated protein kinase 9 (Homo sapiens) (UniProt P45984); assay: Inhibition of JNK2 assessed as enzyme activity at 1 uM relative to untreated control; set-up: scale not given: the % may be the effect or the level left
[22] = biological target: Mitogen-activated protein kinase 8 (Homo sapiens) (UniProt P45983); assay: Inhibition of JNK1 assessed as enzyme activity at 1 uM relative to untreated control; set-up: scale not given: the % may be the effect or the level left
[23] = biological target: Epithelial discoidin domain-containing receptor 1 (Homo sapiens) (UniProt Q08345); assay: Inhibition of DDR1 dyscoidin domain assessed as enzyme activity at 1 uM relative to untreated control; set-up: scale not given: the % may be the effect or the level left
Epithelial discoidin domain-containing receptor 1 (Homo sapiens), sequence (Q08345 whole entry, the tested form may be a part): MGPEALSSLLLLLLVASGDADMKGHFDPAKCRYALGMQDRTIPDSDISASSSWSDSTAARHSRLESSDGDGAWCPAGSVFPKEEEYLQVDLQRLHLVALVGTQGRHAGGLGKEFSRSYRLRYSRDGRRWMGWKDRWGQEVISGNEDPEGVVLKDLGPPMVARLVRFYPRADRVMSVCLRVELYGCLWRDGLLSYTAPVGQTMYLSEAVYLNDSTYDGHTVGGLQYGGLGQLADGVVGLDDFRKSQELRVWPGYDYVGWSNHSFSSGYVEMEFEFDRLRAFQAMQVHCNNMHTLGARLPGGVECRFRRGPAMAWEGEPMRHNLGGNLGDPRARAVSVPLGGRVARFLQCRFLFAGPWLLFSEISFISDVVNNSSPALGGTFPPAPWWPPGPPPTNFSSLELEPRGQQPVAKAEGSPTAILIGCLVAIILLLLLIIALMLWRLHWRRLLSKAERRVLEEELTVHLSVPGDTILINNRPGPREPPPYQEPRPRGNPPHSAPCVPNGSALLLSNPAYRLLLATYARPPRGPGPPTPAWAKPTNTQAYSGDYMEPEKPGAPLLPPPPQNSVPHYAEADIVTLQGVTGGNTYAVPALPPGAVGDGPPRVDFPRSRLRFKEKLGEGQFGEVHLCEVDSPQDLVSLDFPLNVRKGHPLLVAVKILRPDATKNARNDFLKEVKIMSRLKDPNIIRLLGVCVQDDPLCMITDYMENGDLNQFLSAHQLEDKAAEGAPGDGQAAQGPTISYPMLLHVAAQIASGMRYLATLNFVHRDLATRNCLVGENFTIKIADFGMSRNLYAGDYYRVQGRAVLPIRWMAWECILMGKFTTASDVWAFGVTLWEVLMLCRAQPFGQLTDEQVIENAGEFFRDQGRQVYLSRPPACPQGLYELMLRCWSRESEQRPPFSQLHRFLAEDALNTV

[24] = biological target: Cyclin-dependent kinase 7 (Homo sapiens) (UniProt P50613); assay: Inhibition of CDK7 assessed as enzyme activity at 1 uM relative to untreated control; set-up: scale not given: the % may be the effect or the level left
Cyclin-dependent kinase 7 (Homo sapiens), sequence (P50613 whole entry): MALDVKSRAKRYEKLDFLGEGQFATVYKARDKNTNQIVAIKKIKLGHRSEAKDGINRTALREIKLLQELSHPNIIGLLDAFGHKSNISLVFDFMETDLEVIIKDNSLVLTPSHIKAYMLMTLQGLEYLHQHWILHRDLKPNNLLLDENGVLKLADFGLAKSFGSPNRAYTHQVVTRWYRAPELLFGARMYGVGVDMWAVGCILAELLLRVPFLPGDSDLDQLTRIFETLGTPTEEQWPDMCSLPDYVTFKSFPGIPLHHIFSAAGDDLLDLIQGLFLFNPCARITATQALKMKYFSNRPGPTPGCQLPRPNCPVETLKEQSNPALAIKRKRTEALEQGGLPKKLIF

[25] = biological target: Activin receptor type-2A (Homo sapiens) (UniProt P27037); assay: Inhibition of ACVR2A assessed as enzyme activity at 1 uM relative to untreated control; set-up: scale not given: the % may be the effect or the level left
[26] = biological target: Serine/threonine-protein kinase PLK4 (Homo sapiens) (UniProt O00444); assay: Inhibition of PLK4 assessed as enzyme activity at 1 uM relative to untreated control; set-up: scale not given: the % may be the effect or the level left
[27] = biological target: Calcium/calmodulin-dependent protein kinase type II subunit delta (Homo sapiens) (UniProt Q13557); assay: Inhibition of CAMK2D assessed as enzyme activity at 1 uM relative to untreated control; set-up: scale not given: the % may be the effect or the level left
[28] = biological target: Cyclin-dependent kinase 5 (Homo sapiens) (UniProt Q00535); assay: Inhibition of CDK5 assessed as enzyme activity at 1 uM relative to untreated control; set-up: scale not given: the % may be the effect or the level left
[29] = biological target: Vascular endothelial growth factor receptor 1 (Homo sapiens) (UniProt P17948); assay: Inhibition of FLT1 assessed as enzyme activity at 1 uM relative to untreated control; set-up: scale not given: the % may be the effect or the level left
[30] = biological target: RAC-beta serine/threonine-protein kinase (Homo sapiens) (UniProt P31751); assay: Inhibition of AKT2 assessed as enzyme activity at 1 uM relative to untreated control; set-up: scale not given: the % may be the effect or the level left
[31] = biological target: Mitogen-activated protein kinase kinase kinase 7 (Homo sapiens) (UniProt O43318); assay: Inhibition of TAK1 assessed as enzyme activity at 1 uM relative to untreated control; set-up: scale not given: the % may be the effect or the level left
[32] = biological target: Serine/threonine-protein kinase LATS2 (Homo sapiens) (UniProt Q9NRM7); assay: Inhibition of LATS2 assessed as enzyme activity at 1 uM relative to untreated control; set-up: scale not given: the % may be the effect or the level left
[33] = biological target: Calcium/calmodulin-dependent protein kinase type II subunit gamma (Homo sapiens) (UniProt Q13555); assay: Inhibition of CAMK2G assessed as enzyme activity at 1 uM relative to untreated control; set-up: scale not given: the % may be the effect or the level left
A-375 [34] = assay: Antitumor activity against human A375 SQ2 cells xenografted in CD1 mouse assessed as regression of tumor growth at 5 mg/kg, po qd for 14 days; assay type: functional
[35] = biological target: Vascular endothelial growth factor receptor 3 (Homo sapiens) (UniProt P35916); assay: Inhibition of FLT4 assessed as enzyme activity at 1 uM relative to untreated control; set-up: scale not given: the % may be the effect or the level left
Vascular endothelial growth factor receptor 3 (Homo sapiens), sequence (P35916 whole entry): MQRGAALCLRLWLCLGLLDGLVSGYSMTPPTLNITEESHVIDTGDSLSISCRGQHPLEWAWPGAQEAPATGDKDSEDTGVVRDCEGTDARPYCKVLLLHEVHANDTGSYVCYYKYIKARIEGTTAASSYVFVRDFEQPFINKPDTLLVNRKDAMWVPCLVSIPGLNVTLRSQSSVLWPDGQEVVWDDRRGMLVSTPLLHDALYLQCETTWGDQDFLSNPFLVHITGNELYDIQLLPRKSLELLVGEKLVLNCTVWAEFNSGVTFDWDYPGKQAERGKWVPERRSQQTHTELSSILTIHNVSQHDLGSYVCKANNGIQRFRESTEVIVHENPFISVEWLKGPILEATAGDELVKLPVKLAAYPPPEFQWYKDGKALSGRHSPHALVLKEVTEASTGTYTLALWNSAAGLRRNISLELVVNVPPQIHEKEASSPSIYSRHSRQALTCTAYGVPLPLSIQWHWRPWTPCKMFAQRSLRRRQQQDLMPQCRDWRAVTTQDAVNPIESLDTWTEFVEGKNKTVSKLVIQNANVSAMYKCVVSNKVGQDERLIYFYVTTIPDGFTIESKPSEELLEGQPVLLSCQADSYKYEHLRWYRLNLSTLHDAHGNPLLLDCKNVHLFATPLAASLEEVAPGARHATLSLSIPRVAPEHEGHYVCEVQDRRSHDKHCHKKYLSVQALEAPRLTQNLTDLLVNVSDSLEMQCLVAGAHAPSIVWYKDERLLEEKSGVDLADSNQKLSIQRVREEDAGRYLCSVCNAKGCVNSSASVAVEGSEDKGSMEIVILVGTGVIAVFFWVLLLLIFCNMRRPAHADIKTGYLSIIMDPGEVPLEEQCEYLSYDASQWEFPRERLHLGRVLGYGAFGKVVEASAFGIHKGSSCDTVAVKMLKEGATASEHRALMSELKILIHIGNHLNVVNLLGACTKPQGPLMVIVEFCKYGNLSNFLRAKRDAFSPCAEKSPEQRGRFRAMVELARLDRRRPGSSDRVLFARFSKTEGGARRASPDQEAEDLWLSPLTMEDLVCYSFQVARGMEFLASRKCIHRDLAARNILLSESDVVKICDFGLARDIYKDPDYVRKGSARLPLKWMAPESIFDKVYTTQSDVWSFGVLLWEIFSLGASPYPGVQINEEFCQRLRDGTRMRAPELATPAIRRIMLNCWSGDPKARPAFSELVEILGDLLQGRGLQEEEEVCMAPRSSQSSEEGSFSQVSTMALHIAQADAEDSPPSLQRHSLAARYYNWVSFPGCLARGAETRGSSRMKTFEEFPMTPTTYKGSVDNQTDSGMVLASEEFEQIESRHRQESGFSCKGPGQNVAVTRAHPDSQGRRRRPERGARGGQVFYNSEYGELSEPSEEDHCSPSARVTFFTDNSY

[36] = biological target: Muscle, skeletal receptor tyrosine-protein kinase (Homo sapiens) (UniProt O15146); assay: Inhibition of MUSK assessed as enzyme activity at 1 uM relative to untreated control; set-up: scale not given: the % may be the effect or the level left
[37] = biological target: Serine/threonine-protein kinase 4 (Homo sapiens) (UniProt Q13043); assay: Inhibition of MST1 assessed as enzyme activity at 1 uM relative to untreated control; set-up: scale not given: the % may be the effect or the level left
[38] = biological target: Aurora kinase A (Homo sapiens) (UniProt O14965); assay: Inhibition of AURKA assessed as enzyme activity at 1 uM relative to untreated control; set-up: scale not given: the % may be the effect or the level left
Aurora kinase A (Homo sapiens), sequence (O14965 whole entry): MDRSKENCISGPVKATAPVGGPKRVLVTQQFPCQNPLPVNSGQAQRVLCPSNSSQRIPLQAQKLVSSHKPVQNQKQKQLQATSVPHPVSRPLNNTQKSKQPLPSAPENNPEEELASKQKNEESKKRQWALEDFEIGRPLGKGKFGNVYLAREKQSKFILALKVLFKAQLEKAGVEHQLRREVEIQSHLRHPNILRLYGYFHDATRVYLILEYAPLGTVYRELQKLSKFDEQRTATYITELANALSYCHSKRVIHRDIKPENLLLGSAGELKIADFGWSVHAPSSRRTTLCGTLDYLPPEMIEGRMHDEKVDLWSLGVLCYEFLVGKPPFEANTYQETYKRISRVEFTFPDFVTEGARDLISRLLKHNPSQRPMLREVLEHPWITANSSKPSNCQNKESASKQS

Structure (SMILES): Cc1ccc2c(Nc3ccc(Cl)cc3)nccc2c1Nc1ncccc1-c1ncnc2[nH]cnc12.Cl.Cl.Cl
- Activity [1]: 73%
- inhibition in vivo at 1 mg/kg (A-375 [2]): 22%
- Activity [3]: 71%
- Activity [4]: 94%
- Activity [5]: 86%
- Activity [6]: 100%
- Activity [7]: 100%
- Activity [8]: 85%
- Activity [9]: 100%
- Activity [10]: 92%
- Activity [11]: 84%
- Activity [12]: 100%
- Activity [13]: 100%
- Activity [14]: 100%
- Activity [15]: 4.6%
- Activity [16]: 98%
- Activity [17]: 81%
- Activity [18]: 57%
- Activity [19]: 94%
- Activity [20]: 75%
- Activity [21]: 86%
- Activity [22]: 2.7%
- Activity [23]: 0.1%
- Activity [24]: 100%
- Activity [25]: 100%
- Activity [26]: 90%
- Activity [27]: 79%
- Activity [28]: 100%
- Activity [29]: 2.2%
- Activity [30]: 88%
- Activity [31]: 84%
- Activity [32]: 85%
- Activity [33]: 98%
- Activity (A-375 [34]): 85%
- Activity [35]: 96%
- Activity [36]: 66%
- Activity [37]: 88%
- Activity [38]: 100%
